According to PMC6874179, “Development of Macrocycle Kinase Inhibitors for ALK2 Using Fibrodysplasia Ossificans Progressiva‐Derived Endothelial Cells” (JBMR Plus, 2019):

What was measured:
MAP2K2 = molecular target: T1, MAP2K2 (Homo sapiens, UniProt P36507); assay: Proqinase Kinase profiling; type: biochemical; settings: read-out: % inhibition at 100nM
T1 construct: purchased DiscoverX

CDK5_p35 = molecular target: T2, CDK5_p35 (Homo sapiens, UniProt Q00535); assay: Proqinase Kinase profiling; type: biochemical; settings: read-out: % inhibition at 100nM
T2 construct: purchased DiscoverX

ABL1_T351I = molecular target: T3, ABL1_T351I (Homo sapiens, UniProt P00519, T315I); assay: Proqinase Kinase profiling; type: biochemical; settings: read-out: % inhibition at 100nM
T3 construct: purchased DiscoverX

TEK = molecular target: T4, TEK (Homo sapiens, UniProt Q02763); assay: Proqinase Kinase profiling; type: biochemical; settings: read-out: % inhibition at 100nM
T4 construct: purchased DiscoverX

SGK2 = molecular target: T5, SGK2 (Homo sapiens, UniProt Q9HBY8); assay: Proqinase Kinase profiling; type: biochemical; settings: read-out: % inhibition at 100nM
T5 construct: purchased DiscoverX

FGFR4 = molecular target: T6, FGFR4 (Homo sapiens, UniProt P22455); assay: Proqinase Kinase profiling; type: biochemical; settings: read-out: % inhibition at 100nM
T6 construct: purchased DiscoverX

FGFR2 = molecular target: T7, FGFR2 (Homo sapiens, UniProt P21802); assay: Proqinase Kinase profiling; type: biochemical; settings: read-out: % inhibition at 100nM
T7 construct: purchased DiscoverX
T7 sequence (P21802 22-821): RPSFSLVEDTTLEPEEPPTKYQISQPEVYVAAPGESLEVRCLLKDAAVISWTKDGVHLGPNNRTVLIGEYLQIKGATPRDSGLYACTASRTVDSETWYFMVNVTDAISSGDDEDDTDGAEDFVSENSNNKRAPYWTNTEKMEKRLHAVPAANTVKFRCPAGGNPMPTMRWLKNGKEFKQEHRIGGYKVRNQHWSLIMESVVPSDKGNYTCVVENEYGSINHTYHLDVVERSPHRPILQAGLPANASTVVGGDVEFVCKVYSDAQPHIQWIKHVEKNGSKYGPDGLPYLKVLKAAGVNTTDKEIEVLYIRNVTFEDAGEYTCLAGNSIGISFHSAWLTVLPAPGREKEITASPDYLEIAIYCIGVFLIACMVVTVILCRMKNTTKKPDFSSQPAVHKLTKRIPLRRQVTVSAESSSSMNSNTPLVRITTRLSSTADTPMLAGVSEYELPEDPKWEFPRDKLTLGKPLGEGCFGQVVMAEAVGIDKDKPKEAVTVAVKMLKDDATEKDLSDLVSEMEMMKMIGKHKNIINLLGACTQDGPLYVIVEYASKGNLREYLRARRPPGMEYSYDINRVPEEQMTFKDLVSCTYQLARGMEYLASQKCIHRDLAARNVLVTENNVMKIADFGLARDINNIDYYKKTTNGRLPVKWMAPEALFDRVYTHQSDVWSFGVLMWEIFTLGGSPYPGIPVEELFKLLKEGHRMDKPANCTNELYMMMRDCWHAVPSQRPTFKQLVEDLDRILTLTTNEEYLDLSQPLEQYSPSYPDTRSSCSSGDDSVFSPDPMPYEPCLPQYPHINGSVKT

[1] = test system: BMP-6-induced BRE-LUC reporter activity; assay: BMP BRE-LUC reporter assay in KS483 cells; type: cell-based, mouse; settings: BMP-6 50 ng/mL 16 hours
Procedure: (§1) Compounds were added for 16 hours at 0.5μM before luciferase activity was measured.
(§2) For luciferase reporter assays, cells were seeded in 24-well plates and transfected with DharmaFECT Duo (Fisher Scientific, Landsmeer, The Netherlands), following the recommendations of the manufacturer. 48 hours after transfection the cells were harvested and lysed. […] Each transfection mixture was equalized with empty vector when necessary and every experiment was performed in triplicate.

LRRK2_G2019S = molecular target: T8, LRRK2_G2019S (Homo sapiens, UniProt Q5S007, G2019S); assay: Proqinase Kinase profiling; type: biochemical; settings: read-out: % inhibition at 100nM
T8 construct: purchased DiscoverX
T8 sequence (Q5S007 whole entry G2019S): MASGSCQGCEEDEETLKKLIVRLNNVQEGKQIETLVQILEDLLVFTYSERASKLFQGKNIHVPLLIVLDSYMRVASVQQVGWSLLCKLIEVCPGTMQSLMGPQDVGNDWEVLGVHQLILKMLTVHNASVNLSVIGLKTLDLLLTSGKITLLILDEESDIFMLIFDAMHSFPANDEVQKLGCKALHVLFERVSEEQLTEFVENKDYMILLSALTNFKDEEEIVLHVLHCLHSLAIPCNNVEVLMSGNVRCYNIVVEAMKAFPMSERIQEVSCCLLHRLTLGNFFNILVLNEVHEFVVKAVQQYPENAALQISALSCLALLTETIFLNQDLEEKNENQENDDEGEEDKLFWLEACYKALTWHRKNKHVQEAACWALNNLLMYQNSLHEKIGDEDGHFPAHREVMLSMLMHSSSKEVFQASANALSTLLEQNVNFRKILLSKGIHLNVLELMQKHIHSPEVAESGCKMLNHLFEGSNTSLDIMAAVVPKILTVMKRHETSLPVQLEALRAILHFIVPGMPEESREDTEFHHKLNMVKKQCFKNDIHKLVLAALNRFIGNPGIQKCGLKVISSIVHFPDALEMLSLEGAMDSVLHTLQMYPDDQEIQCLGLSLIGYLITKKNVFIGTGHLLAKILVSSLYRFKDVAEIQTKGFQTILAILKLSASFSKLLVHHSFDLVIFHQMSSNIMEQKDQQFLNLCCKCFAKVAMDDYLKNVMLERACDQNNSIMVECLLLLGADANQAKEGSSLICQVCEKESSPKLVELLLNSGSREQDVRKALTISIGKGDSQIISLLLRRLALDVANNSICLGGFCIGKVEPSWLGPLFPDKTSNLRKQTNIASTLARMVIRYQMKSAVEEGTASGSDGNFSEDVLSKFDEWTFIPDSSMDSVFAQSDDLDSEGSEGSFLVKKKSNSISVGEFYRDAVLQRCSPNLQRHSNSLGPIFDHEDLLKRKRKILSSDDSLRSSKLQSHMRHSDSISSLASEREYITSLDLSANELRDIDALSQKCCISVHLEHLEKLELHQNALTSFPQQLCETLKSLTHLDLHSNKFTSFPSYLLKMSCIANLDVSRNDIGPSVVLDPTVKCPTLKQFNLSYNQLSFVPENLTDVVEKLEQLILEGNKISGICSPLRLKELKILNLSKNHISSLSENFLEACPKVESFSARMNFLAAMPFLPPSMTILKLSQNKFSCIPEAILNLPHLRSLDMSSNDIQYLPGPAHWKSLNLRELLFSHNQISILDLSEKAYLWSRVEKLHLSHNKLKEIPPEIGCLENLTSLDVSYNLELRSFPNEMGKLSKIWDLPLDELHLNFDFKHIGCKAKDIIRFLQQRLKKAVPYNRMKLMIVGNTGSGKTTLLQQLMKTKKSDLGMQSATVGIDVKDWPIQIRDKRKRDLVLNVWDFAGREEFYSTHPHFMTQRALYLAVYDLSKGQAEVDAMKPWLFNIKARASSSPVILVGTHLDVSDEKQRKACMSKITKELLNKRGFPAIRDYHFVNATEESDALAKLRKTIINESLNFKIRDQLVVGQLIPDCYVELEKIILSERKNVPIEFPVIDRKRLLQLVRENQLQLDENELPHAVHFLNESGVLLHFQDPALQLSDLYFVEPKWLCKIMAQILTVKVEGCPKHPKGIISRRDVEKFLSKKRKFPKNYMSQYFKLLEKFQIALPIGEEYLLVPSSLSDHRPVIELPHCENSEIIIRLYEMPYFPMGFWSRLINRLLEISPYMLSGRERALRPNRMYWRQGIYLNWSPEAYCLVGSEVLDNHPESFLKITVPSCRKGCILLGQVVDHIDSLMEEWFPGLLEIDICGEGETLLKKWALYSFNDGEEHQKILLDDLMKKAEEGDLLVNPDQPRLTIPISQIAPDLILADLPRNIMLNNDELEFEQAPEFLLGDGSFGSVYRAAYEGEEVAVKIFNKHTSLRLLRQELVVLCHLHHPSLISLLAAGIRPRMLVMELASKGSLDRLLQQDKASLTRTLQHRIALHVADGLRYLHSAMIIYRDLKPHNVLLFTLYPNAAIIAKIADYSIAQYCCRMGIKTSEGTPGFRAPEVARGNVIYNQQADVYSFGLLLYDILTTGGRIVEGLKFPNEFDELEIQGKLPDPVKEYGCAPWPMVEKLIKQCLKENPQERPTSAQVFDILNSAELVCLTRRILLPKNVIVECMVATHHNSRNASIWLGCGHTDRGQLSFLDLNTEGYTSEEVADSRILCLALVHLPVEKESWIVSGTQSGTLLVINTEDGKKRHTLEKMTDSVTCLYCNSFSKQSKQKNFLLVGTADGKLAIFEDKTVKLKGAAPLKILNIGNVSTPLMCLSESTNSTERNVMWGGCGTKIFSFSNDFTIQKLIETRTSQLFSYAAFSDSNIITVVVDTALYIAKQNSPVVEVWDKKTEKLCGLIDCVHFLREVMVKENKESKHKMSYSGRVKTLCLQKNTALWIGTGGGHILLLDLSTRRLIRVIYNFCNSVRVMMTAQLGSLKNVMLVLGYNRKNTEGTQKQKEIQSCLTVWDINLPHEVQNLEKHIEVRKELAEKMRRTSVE

CSK = molecular target: T9, CSK (Homo sapiens, UniProt P41240); assay: Proqinase Kinase profiling; type: biochemical; settings: read-out: % inhibition at 100nM
T9 construct: purchased DiscoverX

STK39 = molecular target: T10, STK39 (Homo sapiens, UniProt Q9UEW8); assay: Proqinase Kinase profiling; type: biochemical; settings: read-out: % inhibition at 100nM
T10 construct: purchased DiscoverX

MAP4K4 = molecular target: T11, MAP4K4 (Homo sapiens, UniProt O95819); assay: Proqinase Kinase profiling; type: biochemical; settings: read-out: % inhibition at 100nM
T11 construct: purchased DiscoverX

RPS6KB1 = molecular target: T12, RPS6KB1 (Homo sapiens, UniProt P23443); assay: Proqinase Kinase profiling; type: biochemical; settings: read-out: % inhibition at 100nM
T12 construct: purchased DiscoverX

CSNK1D = molecular target: T13, CSNK1D (Homo sapiens, UniProt P48730); assay: Proqinase Kinase profiling; type: biochemical; settings: read-out: % inhibition at 100nM
T13 construct: purchased DiscoverX

MAP4K5 = molecular target: T14, MAP4K5 (Homo sapiens, UniProt Q9Y4K4); assay: Proqinase Kinase profiling; type: biochemical; settings: read-out: % inhibition at 100nM
T14 construct: purchased DiscoverX

MAPK15 = molecular target: T15, MAPK15 (Homo sapiens, UniProt Q8TD08); assay: Proqinase Kinase profiling; type: biochemical; settings: read-out: % inhibition at 100nM
T15 construct: purchased DiscoverX

ITK = molecular target: T16, ITK (Homo sapiens, UniProt Q08881); assay: Proqinase Kinase profiling; type: biochemical; settings: read-out: % inhibition at 100nM
T16 construct: purchased DiscoverX
T16 sequence (Q08881 whole entry): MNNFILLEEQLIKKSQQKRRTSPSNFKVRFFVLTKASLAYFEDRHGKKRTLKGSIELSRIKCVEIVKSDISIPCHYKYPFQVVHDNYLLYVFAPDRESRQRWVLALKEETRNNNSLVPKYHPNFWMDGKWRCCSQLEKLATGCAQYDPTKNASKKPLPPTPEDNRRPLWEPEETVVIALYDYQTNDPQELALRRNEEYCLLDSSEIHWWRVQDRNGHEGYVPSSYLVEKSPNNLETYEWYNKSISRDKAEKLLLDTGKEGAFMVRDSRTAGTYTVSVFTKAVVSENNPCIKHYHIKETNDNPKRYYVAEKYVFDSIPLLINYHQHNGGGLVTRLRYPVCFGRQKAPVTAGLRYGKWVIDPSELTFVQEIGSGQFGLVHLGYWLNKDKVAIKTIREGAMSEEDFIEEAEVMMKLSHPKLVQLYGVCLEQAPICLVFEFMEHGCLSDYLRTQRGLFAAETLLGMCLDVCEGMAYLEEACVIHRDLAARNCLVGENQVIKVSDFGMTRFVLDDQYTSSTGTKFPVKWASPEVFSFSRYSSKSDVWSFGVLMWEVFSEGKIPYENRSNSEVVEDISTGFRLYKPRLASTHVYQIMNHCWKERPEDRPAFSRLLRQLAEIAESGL

PRKD2 = molecular target: T17, PRKD2 (Homo sapiens, UniProt Q9BZL6); assay: Proqinase Kinase profiling; type: biochemical; settings: read-out: % inhibition at 100nM
T17 construct: purchased DiscoverX

EIF2AK3 = molecular target: T18, EIF2AK3 (Homo sapiens, UniProt Q9NZJ5); assay: Proqinase Kinase profiling; type: biochemical; settings: read-out: % inhibition at 100nM
T18 construct: purchased DiscoverX

TAOK3 = molecular target: T19, TAOK3 (Homo sapiens, UniProt Q9H2K8); assay: Proqinase Kinase profiling; type: biochemical; settings: read-out: % inhibition at 100nM
T19 construct: purchased DiscoverX
T19 sequence (Q9H2K8 whole entry): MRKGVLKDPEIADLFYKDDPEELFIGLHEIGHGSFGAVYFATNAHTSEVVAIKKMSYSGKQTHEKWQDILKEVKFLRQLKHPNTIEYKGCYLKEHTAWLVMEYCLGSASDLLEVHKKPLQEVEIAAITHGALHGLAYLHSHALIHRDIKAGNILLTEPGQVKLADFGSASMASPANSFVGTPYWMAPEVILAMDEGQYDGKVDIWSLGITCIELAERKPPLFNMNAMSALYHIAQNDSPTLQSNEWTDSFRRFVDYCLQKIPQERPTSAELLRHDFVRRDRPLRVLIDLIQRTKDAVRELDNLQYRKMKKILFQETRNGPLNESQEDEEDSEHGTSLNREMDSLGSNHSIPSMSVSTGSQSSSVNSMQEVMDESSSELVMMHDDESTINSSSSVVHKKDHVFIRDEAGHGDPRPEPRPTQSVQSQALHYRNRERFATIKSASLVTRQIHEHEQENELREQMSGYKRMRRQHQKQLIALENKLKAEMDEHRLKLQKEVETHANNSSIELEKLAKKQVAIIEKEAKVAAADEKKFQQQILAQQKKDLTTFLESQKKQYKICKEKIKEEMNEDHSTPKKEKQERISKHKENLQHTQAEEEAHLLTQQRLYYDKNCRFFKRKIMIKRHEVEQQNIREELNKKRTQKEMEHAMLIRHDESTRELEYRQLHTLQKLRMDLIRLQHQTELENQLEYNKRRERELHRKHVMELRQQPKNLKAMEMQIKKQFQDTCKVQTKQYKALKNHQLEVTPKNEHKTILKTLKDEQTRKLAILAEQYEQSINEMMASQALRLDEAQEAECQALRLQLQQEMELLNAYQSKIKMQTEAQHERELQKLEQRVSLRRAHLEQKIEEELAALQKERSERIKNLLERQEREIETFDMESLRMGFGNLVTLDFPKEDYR

CDK6_cyclinD1 = molecular target: T20, CDK6_cyclinD1 (Homo sapiens, UniProt Q00534); assay: Proqinase Kinase profiling; type: biochemical; settings: read-out: % inhibition at 100nM
T20 construct: purchased DiscoverX

STK25 = molecular target: T21, STK25 (Homo sapiens, UniProt O00506); assay: Proqinase Kinase profiling; type: biochemical; settings: read-out: % inhibition at 100nM
T21 construct: purchased DiscoverX

ALK = molecular target: T22, ALK (Homo sapiens, UniProt Q9UM73); assay: Proqinase Kinase profiling; type: biochemical; settings: read-out: % inhibition at 100nM
T22 construct: purchased DiscoverX

KIT_V560G = molecular target: T23, KIT_V560G (Homo sapiens, UniProt P10721, V560G); assay: Proqinase Kinase profiling; type: biochemical; settings: read-out: % inhibition at 100nM
T23 construct: purchased DiscoverX

PRKCA = molecular target: T24, PRKCA (Homo sapiens, UniProt P17252); assay: Proqinase Kinase profiling; type: biochemical; settings: read-out: % inhibition at 100nM
T24 construct: purchased DiscoverX

JAK2 = molecular target: T25, JAK2 (Homo sapiens, UniProt O60674); assay: Proqinase Kinase profiling; type: biochemical; settings: read-out: % inhibition at 100nM
T25 construct: purchased DiscoverX

ALK_F1174S = molecular target: T26, ALK_F1174S (Homo sapiens, UniProt Q9UM73, F1174S); assay: Proqinase Kinase profiling; type: biochemical; settings: read-out: % inhibition at 100nM
T26 construct: purchased DiscoverX

DYRK3 = molecular target: T27, DYRK3 (Homo sapiens, UniProt O43781); assay: Proqinase Kinase profiling; type: biochemical; settings: read-out: % inhibition at 100nM
T27 construct: purchased DiscoverX

FLT3_D835Y = molecular target: T28, FLT3_D835Y (Homo sapiens, UniProt P36888, D835Y); assay: Proqinase Kinase profiling; type: biochemical; settings: read-out: % inhibition at 100nM
T28 construct: purchased DiscoverX

TYRO3 = molecular target: T29, TYRO3 (Homo sapiens, UniProt Q06418); assay: Proqinase Kinase profiling; type: biochemical; settings: read-out: % inhibition at 100nM
T29 construct: purchased DiscoverX

BTK = molecular target: T30, BTK (Homo sapiens, UniProt Q06187); assay: Proqinase Kinase profiling; type: biochemical; settings: read-out: % inhibition at 100nM
T30 construct: purchased DiscoverX

FLT1 = molecular target: T31, FLT1 (Homo sapiens, UniProt P17948); assay: Proqinase Kinase profiling; type: biochemical; settings: read-out: % inhibition at 100nM
T31 construct: purchased DiscoverX

[2] = test system: TGF-β-induced CAGA-LUC reporter activity; assay: TGF-β CAGA-LUC reporter assay in KS483 cells; type: cell-based, mouse; settings: TGF-β 5 ng/mL 16 hours, compared with LDN-193189
Procedure: as §1, §2

RIPK2 = molecular target: T32, RIPK2 (Homo sapiens, UniProt O43353); assay: Proqinase Kinase profiling; type: biochemical; settings: read-out: % inhibition at 100nM
T32 construct: purchased DiscoverX

PRKCB1_II = molecular target: T33, PRKCB1_II (Homo sapiens, UniProt P05771); assay: Proqinase Kinase profiling; type: biochemical; settings: read-out: % inhibition at 100nM
T33 construct: purchased DiscoverX

GRK5 = molecular target: T34, GRK5 (Homo sapiens, UniProt P34947); assay: Proqinase Kinase profiling; type: biochemical; settings: read-out: % inhibition at 100nM
T34 construct: purchased DiscoverX

CAMK1D = molecular target: T35, CAMK1D (Homo sapiens, UniProt Q8IU85); assay: Proqinase Kinase profiling; type: biochemical; settings: read-out: % inhibition at 100nM
T35 construct: purchased DiscoverX

EGFR_L858R = molecular target: T36, EGFR_L858R (Homo sapiens, UniProt P00533, L858R); assay: Proqinase Kinase profiling; type: biochemical; settings: read-out: % inhibition at 100nM
T36 construct: purchased DiscoverX

CHUK = molecular target: T37, CHUK (Homo sapiens, UniProt O15111); assay: Proqinase Kinase profiling; type: biochemical; settings: read-out: % inhibition at 100nM
T37 construct: purchased DiscoverX

EPHA3 = molecular target: T38, EPHA3 (Homo sapiens, UniProt P29320); assay: Proqinase Kinase profiling; type: biochemical; settings: read-out: % inhibition at 100nM
T38 construct: purchased DiscoverX

Compound | inhibition at 0.1 µM (MAP2K2) [%] | inhibition at 0.1 µM (CDK5_p35) [%] | inhibition at 0.1 µM (ABL1_T351I) [%] | inhibition at 0.1 µM (TEK) [%] | inhibition at 0.1 µM (SGK2) [%] | inhibition at 0.1 µM (FGFR4) [%] | inhibition at 0.1 µM (FGFR2) [%] | Inhibition of BMP-6-stimulated BRE-LUC reporter activity [1] | inhibition at 0.1 µM (LRRK2_G2019S) [%] | inhibition at 0.1 µM (CSK) [%] | inhibition at 0.1 µM (STK39) [%] | inhibition at 0.1 µM (MAP4K4) [%] | inhibition at 0.1 µM (RPS6KB1) [%] | inhibition at 0.1 µM (CSNK1D) [%] | inhibition at 0.1 µM (MAP4K5) [%] | inhibition at 0.1 µM (MAPK15) [%] | inhibition at 0.1 µM (ITK) [%] | inhibition at 0.1 µM (PRKD2) [%] | inhibition at 0.1 µM (EIF2AK3) [%] | inhibition at 0.1 µM (TAOK3) [%] | other results
Clc1cc2cc(c1)-c1cnn3ccc(nc13)NCCOCCO2 [OD36] | -7 | 9 | 9 | 6 | 6 | 9 | 8 | in the submicromolar range | 61 | -4 | 0 | 38 | -9 | 10 | 18 | 17 | -6 | 9 | 1 | 10 | inhibition at 0.1 µM (CDK6_cyclinD1): -5%; inhibition at 0.1 µM (STK25): 1%; inhibition at 0.1 µM (ALK): 6%; inhibition at 0.1 µM (KIT_V560G): 19%; inhibition at 0.1 µM (PRKCA): 26%; inhibition at 0.1 µM (JAK2): 7%; inhibition at 0.1 µM (ALK_F1174S): 13%; inhibition at 0.1 µM (DYRK3): 0%; inhibition at 0.1 µM (FLT3_D835Y): 62%; inhibition at 0.1 µM (TYRO3): 5%; inhibition at 0.1 µM (BTK): 3%; inhibition at 0.1 µM (FLT1): 20%; Inhibitory effect on TGF-β-induced gene transcription (CAGA-LUC) [2]: significantly less inhibitory effect; inhibition at 0.1 µM (RIPK2): 97%; inhibition at 0.1 µM (PRKCB1_II): -5%; inhibition at 0.1 µM (GRK5): 1%; inhibition at 0.1 µM (CAMK1D): 6%; inhibition at 0.1 µM (EGFR_L858R): 11%; inhibition at 0.1 µM (CHUK): 20%; inhibition at 0.1 µM (EPHA3): 12%
Cc1cc2cc(c1)-c1cnn3ccc(nc13)NCCNC(=O)CCN(C)C2 [OD52] | 7 | -8 | -15 | -7 | -1 | -28 | -6 | in the submicromolar range | 39 | -6 | 5 | 5 | -2 | 5 | 19 | -3 | 3 | 4 | -14 | -1 | inhibition at 0.1 µM (CDK6_cyclinD1): 2%; inhibition at 0.1 µM (STK25): 2%; inhibition at 0.1 µM (ALK): 8%; inhibition at 0.1 µM (KIT_V560G): -21%; inhibition at 0.1 µM (PRKCA): 8%; inhibition at 0.1 µM (JAK2): 9%; inhibition at 0.1 µM (ALK_F1174S): -18%; inhibition at 0.1 µM (DYRK3): -5%; inhibition at 0.1 µM (FLT3_D835Y): 4%; inhibition at 0.1 µM (TYRO3): -7%; inhibition at 0.1 µM (BTK): -2%; inhibition at 0.1 µM (FLT1): -4%; Inhibitory effect on TGF-β-induced gene transcription (CAGA-LUC) [2]: significantly less inhibitory effect; inhibition at 0.1 µM (RIPK2): 61%; inhibition at 0.1 µM (PRKCB1_II): -7%; inhibition at 0.1 µM (GRK5): 2%; inhibition at 0.1 µM (CAMK1D): -4%; inhibition at 0.1 µM (EGFR_L858R): -23%; inhibition at 0.1 µM (CHUK): 0%; inhibition at 0.1 µM (EPHA3): -20%
